Assay results as given in ChEMBL document CHEMBL1130798, “Structure based design: novel spirocyclic ethers as nonpeptidal P2-ligands for HIV protease inhibitors” (Bioorg Med Chem Lett, 1998).

Tests used:
[1] = target: Human immunodeficiency virus type 1 protease (Human immunodeficiency virus 1, UniProt Q72874); assay: Compound was evaluated for binding affinity against HIV protease
MT4 = assay: Compound was evaluated for the inhibition spread of HIV-1 in MT-4 human T-lymphoid cells infected with IIIB isolate; format: functional; conditions: read-out: ID50 (the source's name)

SMILES	Ki [1] [nM]	IC50 (MT4) [nM]
CCC[C@]1(O)CCO[C@H](C(=O)N[C@@H](Cc2ccccc2)[C@H](O)CN(CC(C)C)S(=O)(=O)c2ccc(OC)cc2)C1	> 1000	–
COc1ccc(S(=O)(=O)N(CC(C)C)C[C@@H](O)[C@H](Cc2ccccc2)NC(=O)[C@@H]2C[C@]3(CCCO3)CCO2)cc1	150	4500
COc1ccc(S(=O)(=O)N(CC(C)C)C[C@@H](O)[C@H](Cc2ccccc2)NC(=O)[C@@H]2C[C@@]3(CCCO3)CCO2)cc1	20	2400
COc1ccc(S(=O)(=O)N(CC(C)C)C[C@@H](O)[C@H](Cc2ccccc2)NC(=O)[C@H]2C[C@]3(CCCO3)CCO2)cc1	> 2000	–
COc1ccc(S(=O)(=O)N(CC(C)C)C[C@@H](O)[C@H](Cc2ccccc2)NC(=O)[C@H]2C[C@@]3(CCCO3)CCO2)cc1	400	9100
CCC[C@]1(O)CCO[C@@H](C(=O)N[C@@H](Cc2ccccc2)[C@H](O)CN(CC(C)C)S(=O)(=O)c2ccc(OC)cc2)C1	150	3400
COc1ccc(S(=O)(=O)N(CC(C)C)C[C@@H](O)[C@H](Cc2ccccc2)NC(=O)C2CC3(CCCC3)CCO2)cc1 (stereo not given in full)	1500	–
CCC[C@@]1(O)CCO[C@H](C(=O)N[C@@H](Cc2ccccc2)[C@H](O)CN(CC(C)C)S(=O)(=O)c2ccc(OC)cc2)C1	480	> 10000
CCC[C@@]1(O)CCO[C@@H](C(=O)N[C@@H](Cc2ccccc2)[C@H](O)CN(CC(C)C)S(=O)(=O)c2ccc(OC)cc2)C1	> 1000	–
CC(C)(C)NC(=O)C1CC2CCCCC2CN1C[C@@H](O)[C@H](Cc1ccccc1)NC(=O)[C@H](CC(N)=O)NC(=O)c1ccc2ccccc2n1 (single isomer, unassigned)	–	18000
